Reference: patent US12310954B2, “Salivary gland regeneration” (The Regents of the University of California, priority 2018, dated 2025)

Tests used:
[1] = tested on: human salivary gland (SMG or PG) explants; experiment: Human salivary gland explant culture with CCh, qPCR; format: cell-based; conditions: 200 nM, 4 h, vs untreated
From the text: Adult human salivary gland was obtained from discarded, non-identifiable tissue with consent from patients undergoing neck resection (age 28-78, male and female). Informed consent was given by all subjects and experiments conformed to the principles set out in the WMA Declaration of Helsinki and the Department of Health and Human Services Belmont Report. Patients had either had no irradiation therapy (non-IR) or fractionated radiation therapy (IR)<2 years prior to surgery. Tissue was immediately placed in 4% PFA, RNAlater (Qiagen) or DMEM (Thermo Fisher) for live cell explant culture. For ex vivo culture, non-IR tissue was dissected into <1-mm pieces and cultured in serum-free DMEM/F12 containing holotransferrin and ascorbic acid. For explant assays, the tissue (SMG and PG) was incubated with 50-200 nM CCh (200 nM CCh shown in results) for 4 h before being lysed for RNA. For salivary gland explant-parasympathetic submandibular ganglia […] co-culture, tissue was dissected into <1-mm pieces and cultured on a floating filter above serum-free media. E13 mouse parasympathetic submandibular ganglia were isolated as previously described (Knox et al., 2010). One parasympathetic submandibular ganglion per explant was placed next to the human salivary gland and cultured for 7 days and either fixed for immunofluorescent analysis or lysed for RNA.
RNA was isolated from whole tissue using RNAqueous Micro Kit (Ambion). Total RNA samples were DNase-treated (Ambion) prior to cDNA synthesis using SuperScript reagents (Invitrogen, CA). SYBR green qPCR was performed using 5 ng (mouse) or 4-10 ng (human) of cDNA and primers designed using Primer3 and Beacon Designer software or described on PrimerBank (pga.mgh.harvard.edu/primerbank/). Melt curves and primer efficiency were determined as previously described (Hoffman et al., 2002). Gene expression was normalized to the housekeeping genes S18 and S29 (Rps18 and Rsp29) or GAPDH for mouse and GAPDH for human and to the corresponding experimental control. Reactions were run in triplicate and experiments performed 2-3 times.

[2] = tested on: SOX2^+ cells in SLG explants; experiment: Ex vivo lineage tracing in adult salivary gland explants (Sox2CreERT2; Rosa26mTmG); format: cell-based, mouse; conditions: 200 nM, 48 h
Experimental: Salivary glands from Sox2^CreERT2; Rosa26^mTmG mice (recombination induced 24 h prior) were mechanically dissected into <1-mm pieces, placed in complete media in the presence or absence of 200 nM CCh (Sigma-Aldrich) or 10 μM 4-DAMP (Tocris), and cultured for 48 h before being fixed for immunofluorescence. In some cases, mice were irradiated with three doses of 5 Gy before glands were taken for culture as above.
Whole-mount salivary gland and tissue section immunofluorescence analysis has been previously described (Knox et al., 2010). In brief, tissue was fixed with either ice-cold acetone/methanol (1:1) for 1 min or 4% PFA for 20-30 min followed by permeabilizing with 0.1-0.3% Triton X. Tissue was blocked overnight at 4° C. with 10% Donkey Serum (Jackson Laboratories, ME), 1% BSA (Sigma-Aldrich), and MOM IgG-blocking reagent (Vector Laboratories, CA) in 0.01% PBS-Tween 20. […] Antibodies were detected using Cy2-, Cy3-, or Cy5-conjugated secondary Fab fragment antibodies (Jackson Laboratories) and nuclei stained using Hoechst 33342 (1:1,000, Sigma-Aldrich). Fluorescence was analyzed using a Leica Sp5 confocal microscope and NIH ImageJ software.
For immunofluorescent analyses (e.g., FIG. 2D), cells positively stained for markers were counted using ImageJ. Acinar cell size was measured using ImageJ. […]

[3] = long term oral use in patients; cited from earlier work
[4] = tested on: acinar cells of the sublingual gland; experiment: Intraglandular injection of cevimeline, acinar cell proliferation; format: in vivo, mouse; conditions: 10 mg/kg (20 μL) directly into sublingual gland, 18 hrs, non-irradiated mice, vs saline
Experimental: Given our previous findings that systemic administration of a muscarinic mimetic promotes salivary gland proliferation, we next determined if local intraglandular injection was also able to promote a mitotic response. To determine if cevimeline could act locally on the salivary gland to induce acinar cell proliferation we injected cevimeline at 10 mg/kg of body weight (20 μL) directly into the sublingual gland and measured proliferation after 18 hrs.
For Intraglandular injection of cevimeline, mice were administered with analgesics 30 min prior to surgery (carprofen and buprenorphine; Patterson Veterinary and Buprenex; 0.1 mg/kg and […] (IP), respectively) and anaesthetized via inhalation with 2% isoflurane/O2mix. The surgical area was shaved and prepared for incision with alternating iodine and alcohol washes, followed by local anesthetic (lidocaine; Hospira Inc., 8 mg/kg). […]
Tissue section immunofluorescence analysis was processed as follows. […] Antibodies were detected using Cy2-, Cy3- or Cy5-conjugated secondary Fab fragment antibodies (1:300, Jackson Laboratories) and nuclei stained using Hoescht 33342 (1:1000, AnaSpec Inc.). […] Slides were mounted using Fluoromount-G (SouthernBiotech) and fluorescence was analyzed using a Leica Sp5 confocal microscope. Image processing and quantification was performed using NIH ImageJ software.

[5] = tested on: acinar cells of irradiated salivary glands; experiment: Cell proliferation in salivary glands after gamma-radiation induced damage; format: in vivo, mouse; conditions: 14 days after 10Gy, 18 hrs, vs saline
[6] = cited from earlier work
[7] = In vitro cevimeline release from alginate hydrogels (LC-MS/MS); format: physicochemical
Experimental: A Shimadzu Prominence LC-20ADXR system interfaced to a 4500 QTrap mass spectrometer with an electrospray ionization (ESI) source was operated for LC-MS/MS analysis. The chromatographic separation was achieved using a Phenomenex KineteX® C18 (50×3 mm, 2.6 μm) column coupled with a Phenomenex SecurityGuard C18 guard column (3 mm×2.0 mm). The column temperature was controlled at 30° C. Mobile phase A was 0.1% Trifluoroacetic acid in water and mobile phase B was acetonitrile (ACN). The injection volume was 10 μL and the flow rate was 0.5 mL/min. The gradient condition was: (time/minute, % mobile phase B): (0, 15), (1, 15), (2.5, 22.8), (2.6, 98), (5, 98), (5.1, 15), and (8, 15). The source parameters included curtain gas of 45 psi, ion spray voltage of 4000 V, ion source temperature of 550, and medium collision gas.
Standard working solutions of cevimeline were prepared over the range from of 10.0-10000.0 ng/mL in methanol. Working solutions were spiked into 100 μL of DMEM to generate the standards or QC samples. The final concentrations of the calibration standards were 0.5, 1.0, 2.5, 5.0, 10.0, 25.0, 50.0 and 100.0, 250.0 and 500 ng/mL in DMEM. The QC samples were 0.9, 4, 30.0 and 400.0 ng/mL.
For the sample preparation step, to each 100 μL DMEM, 10 μL IS working solution (1000 ng/mL) was added. 96-Well Protein Precipitation Filter Plate Sigma-Aldrich (St. Louis, MO) and 300 μl of MeOH:ACN (15:85) were used for protein precipitation. 200 μl of NH4OH 5% was added to 200 μl of the sample after filtration and 10 μl was injected to the LCMS system. The bioanalytical method was validated in accordance with current U.S. FDA guidelines including selectivity, linearity, intra- and interday precision and accuracy, recovery and stability (“Guidance for Industry, Bioanalytical Method Validation,”2018 fda.gov/media/70858/download).
In vitro cevimeline (CV) release from OA hydrogels was tested by creating 1 mm×4 mm disks with either a 2 or 5% oxidation at a weight/volume of 2, 5, or 10%. Alginate+cevimeline (Abcam, ab141317) hydrogels were created by resuspending the drug at the desired concentration in the DMEM prior to mixing with the lyophilized OA, subsequent crosslinking proceeds as described above to encapsulate the drug with the OA hydrogel. Three 4 mm alginate+cevimeline hydrogels were placed in 0.4 μm transwell in a 12-well plate containing 3.2 ml of DMEM incubating in 37° C. with slow continuous agitation (100 RPM). Sample media (3 ml DMEM) was collected and replenished at 4 hours, 1-, 2-, 3-, 4-, 5-, and 7 days (D). Three hydrogels were pooled together with an average of 3-5 separate replicates (samples) at each time point. Sample media was stored at −20° C. until mass spectroscopy analysis was performed. […]

**Q.** With `C[N+](C)(C)CCOC(N)=O` [CCh, carbachol] as the compound, how does the “expression of AQP3” value ([1]; n=4 individuals) read?
**A.** The value was “significantly increased”.

**Q.** And the “expression of AQP5” value ([1]; n=4 individuals)?
**A.** The value was “significantly increased”.

**Q.** What about the “expression of CHRM1” value ([1]; n=4 individuals) of the same compound?
**A.** Its value is “significantly increased”.

**Q.** And the “expression of CHRM3” value ([1]; n=4 individuals)?
**A.** The value was “significantly increased”.

**Q.** And the “expression of MIST1” value ([1]; n=4 individuals)?
**A.** The value was “significantly increased”.

**Q.** What about the “expression of SOX2” value ([1]; n=4 individuals) of the same compound?
**A.** The value was “significantly increased”.

**Q.** And the KRT19 gene expression [1]?
**A.** The KRT19 gene expression was “increase”.

**Q.** And the “expression of ductal marker EGFR” value [1]?
**A.** Its value is “remained unchanged”.

**Q.** What about the “expression of ductal marker KRT7” value [1] of the same compound?
**A.** The value was “remained unchanged”.

**Q.** What about the “expression of ductal marker KRT8” value [1] of the same compound?
**A.** Its value is “remained unchanged”.

**Q.** And the “GFP^+ clones” value ([2]; healthy (no IR) SLG tissue)?
**A.** The value was “increase”.

**Q.** What about the “cell proliferation (Ki67^+ cells)” value ([2]; healthy SLG tissue) of the same compound?
**A.** Its value is “increase”.

**Q.** And the “GFP^+ cells in IR explants” value ([2]; irradiated SLG explants, compared to IR alone)?
**A.** The value was “increased”.

**Q.** For `CC1OC2(CS1)CN1CCC2CC1` (stereo not shown) [cevimeline], which salivary gland function [3] is on record?
**A.** Its salivary gland function is “improves salivary gland function”.

**Q.** And the acinar cell proliferation [4]?
**A.** The acinar cell proliferation was “significantly increased”.

**Q.** And the “proliferation of acinar cells in irradiated mice” value ([5]; local (intraglandular) 10 mg/kg)?
**A.** Its value is “increased”.

**Q.** What about the “proliferation of acinar cells in irradiated mice” value ([5]; systemic (i.p.) 10 mg/kg) of the same compound?
**A.** The value was “increased”.

**Q.** What about the pKA [6] of the same compound?
**A.** Its pKA is 9.5.

**Q.** And the “release rates with different starting drug loading” value ([7]; 2% OA hydrogels at 5 wt %, different initial cevimeline loading per disk)?
**A.** The value was “remain relatively consistent”.

**Q.** What about the “cevimeline released by 2 days” value ([7]; from OA alginate hydrogels (2 or 5% OA; 2, 5 or 10 wt %)) of the same compound?
**A.** The value was “over 85±5%”.

**Q.** And the “day by which all cevimeline had been released” value ([7]; from OA hydrogels)?
**A.** Its value is no more than 4 days.

**Q.** And the “duration of sustained release” value ([7]; from alginate hydrogel)?
**A.** Its value is 2 days.
